Data: PubChem BioAssay AID1033 (Sanford-Burnham Center for Chemical Genomics, 2008)
Activity calls are given as the source filed them. The rule behind the calls is not given here.

Molecular target: Chaperone protein DnaK (Escherichia coli (strain K12)) (UniProt P0A6Y8)
Assay: binders of DnaK substrate-binding domain, biophysical, NMR, chaperone (AID 1033)
Settings: Purified DnaK SBD, NMR ligand binding

Chaperone protein DnaK (Escherichia coli (strain K12)), sequence (P0A6Y8 whole entry, looked up, the tested form may be a part): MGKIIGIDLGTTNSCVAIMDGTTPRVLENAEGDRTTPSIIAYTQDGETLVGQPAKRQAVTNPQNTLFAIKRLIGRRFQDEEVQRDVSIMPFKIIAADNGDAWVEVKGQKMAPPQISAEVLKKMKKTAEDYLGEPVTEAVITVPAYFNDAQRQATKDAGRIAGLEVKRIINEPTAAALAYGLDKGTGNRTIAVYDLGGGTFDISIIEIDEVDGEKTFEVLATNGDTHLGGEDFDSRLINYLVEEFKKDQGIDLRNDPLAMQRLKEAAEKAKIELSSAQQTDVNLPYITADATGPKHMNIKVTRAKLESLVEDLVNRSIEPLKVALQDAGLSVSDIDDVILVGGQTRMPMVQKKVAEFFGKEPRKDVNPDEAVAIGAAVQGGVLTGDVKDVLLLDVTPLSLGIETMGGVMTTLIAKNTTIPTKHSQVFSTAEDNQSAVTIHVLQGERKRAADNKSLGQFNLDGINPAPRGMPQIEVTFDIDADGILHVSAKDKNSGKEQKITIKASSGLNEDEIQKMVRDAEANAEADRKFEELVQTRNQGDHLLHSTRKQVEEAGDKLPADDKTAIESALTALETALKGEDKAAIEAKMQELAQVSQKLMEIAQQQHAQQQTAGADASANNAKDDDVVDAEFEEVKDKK

SMILES | Kd
CC(C)(C)c1cc(N)n[nH]1 | > 4 mM (inactive)
Nc1[nH]c(=S)ncc1S(=O)(=O)c1ccccc1 | > 4 mM (inactive)
O=C1CN(C(=O)CN2CCOCC2)c2ccccc2N1 | > 4 mM (inactive)
C=C1C2CC[C@@]3(C)[C@H](c4ccoc4)OC(=O)C[C@]13O[C@H]1C[C@H](OC(C)=O)C(C)(C)[C@H](CC(=O)OC)[C@@]21C | > 4 mM (inactive)
O=C(CSc1nc2ccccc2[nH]1)N1CCCCC1 | > 4 mM (inactive)
COC(=O)C1Cc2ccccc2N1 (configuration not stated) | > 4 mM (inactive)
O=c1[nH]c2ccccc2c(=O)n1CCCO | > 4 mM (inactive)
N/C(=N/O)C1COc2ccccc2O1 (configuration not stated) | > 4 mM (inactive)
OCc1ccc2c(c1)OCCO2 | > 4 mM (inactive)
CC(=O)NC(=S)Nc1ccc(C(C)=O)cc1 | > 4 mM (inactive)
CCC(=O)Nc1ccccc1NC(C)=O | > 4 mM (inactive)
Nc1ccc(CCC(=O)O)cc1 | > 4 mM (inactive)
CSc1nc(-c2ccccc2)ccc1C(N)=O | > 4 mM (inactive)
COC1=CC(=O)C(O)=C/C1=C\C=C\c1ccccc1 | > 4 mM (inactive)
Nc1ccc2c(C(F)(F)F)cc(=O)oc2c1 | > 4 mM (inactive)
O=C(O[C@@H]1Cc2c(O)cc(O)cc2O[C@@H]1c1cc(O)c(O)c(O)c1)c1cc(O)c(O)c(O)c1 | > 4 mM (inactive)
COc1cc([C@@H]2c3cc4c(c(O)c3C[C@H]3COC(=O)[C@@H]32)OCO4)cc(OC)c1OC | > 4 mM (inactive)
Cc1ccccc1-n1c(-c2cccnc2)n[nH]c1=S | > 4 mM (inactive)
Cc1ccc(-c2nnn(CC(=O)O)n2)cc1 | > 4 mM (inactive)
NCC(O)c1ccc(O)cc1 (configuration not stated) | > 4 mM (inactive)
O=C(NC(=S)NN1CCOCC1)c1cccs1 | > 4 mM (inactive)

SMILES | Kd
Cn1c(=O)c2ccccc2n(Cc2ccccc2F)c1=O | > 4 mM (inactive)
CNC(=S)Nc1ncn(Cc2cccc(F)c2)n1 | > 4 mM (inactive)
COC(=O)c1c[nH]c2ccccc12 | > 4 mM (inactive)
CC(=O)O[C@H]1C[C@@H](OC(C)=O)C(C)(C)C2CC(=O)[C@]3(C)C(CC[C@@]4(C)[C@H](c5ccoc5)OC(=O)[C@H]5O[C@]543)[C@]21C (some centres not stated) | > 4 mM (inactive)
Cc1ccccc1NS(=O)(=O)c1ccc(F)cc1 | 0.2 mM
O=C(Nc1ccccn1)C(=O)N1CCCC1 | > 4 mM (inactive)
CC(=O)OC1CCC23CC1(C)CCC2C(C)(C)CC3OC(C)=O (configuration not stated) | > 4 mM (inactive)
COC(=O)N1CCN(c2ccc(C(C)=O)cc2)CC1 | > 4 mM (inactive)
COC(=O)c1cccc(Cn2nnc3ccccc3c2=O)c1 | > 4 mM (inactive)
COc1c(OC)c2occc2c2oc(=O)ccc12 | > 4 mM (inactive)
c1coc(CNc2ncnc3nc[nH]c23)c1 | > 4 mM (inactive)
O=C(/C(=N\O)n1cncn1)c1ccccc1Cl | > 4 mM (inactive)
Cc1cc(=O)oc2c1c(C)nn2CN1CCN(C)CC1 | > 4 mM (inactive)
O=C(CSc1ncn[nH]1)c1ccc2c(c1)OCO2 | > 4 mM (inactive)
Cc1ccc(C(=O)N2CCC(C(N)=O)CC2)cc1C | > 4 mM (inactive)
O=C1N/C(=N\c2ccccn2)SC1Cc1ccccc1 (configuration not stated) | > 4 mM (inactive)
O=C(O)C1COc2ccccc2C1 (configuration not stated) | > 4 mM (inactive)
Nc1ccc(C(=O)NCC2CCCO2)cc1 (configuration not stated) | > 4 mM (inactive)
O=C(NCc1ccccc1Cl)c1cnn2cccnc12 | > 4 mM (inactive)
N#CCCn1ccnc1-c1ccccc1 | > 4 mM (inactive)
CCOC(=O)CNc1ncnc2c1nnn2CC | > 4 mM (inactive)

SMILES | Kd
CC(=O)N1CN(C(C)=O)CN(C(C)=O)C1 | > 4 mM (inactive)
O=C1c2ccncc2C(=O)N1CNc1ccccn1 | > 4 mM (inactive)
O=C(Nc1nncs1)c1c(F)c(F)c(F)c(F)c1F | > 4 mM (inactive)
CC(=O)OCC(OC(C)=O)C(OC(C)=O)C(OC(C)=O)C(OC(C)=O)C(COC(C)=O)OC(C)=O (configuration not stated) | > 4 mM (inactive)
Cc1nc2ccccc2c(=O)n1N1C(=O)CCCC1=O | > 4 mM (inactive)
NS(=O)(=O)c1ccccc1Cl | > 4 mM (inactive)
N#Cc1cnn2c(C(F)(F)F)cc(C(F)(F)F)nc12 | > 4 mM (inactive)
Nc1nc(-c2ccc(O)cc2)cs1 | > 4 mM (inactive)
CN(C)S(=O)(=O)NCc1ccc2c(c1)OCO2 | > 4 mM (inactive)
O=C1NC(=S)N/C1=C\c1cccc([N+](=O)[O-])c1 | > 4 mM (inactive)
S=C=NCc1ccccc1 | > 4 mM (inactive)
Nn1cnn2c(SCc3ccccc3)nnc12 | > 4 mM (inactive)
C[C@@H]1CC[C@@]2(OC1)OC1CC3C4CC=C5C[C@@H](O)CC[C@]5(C)C4CC[C@]3(C)C1[C@@H]2C (some centres not stated) | > 4 mM (inactive)
CCOC(=O)c1c(SC)nc(=O)[nH]c1C | > 4 mM (inactive)
Nc1ccc2ncsc2c1 | > 4 mM (inactive)
Cc1cc([N+](=O)[O-])cc[n+]1[O-] | > 4 mM (inactive)
OCc1cc2ccccc2o1 | > 4 mM (inactive)
[O-][n+]1cc(O)c(CN2CCOCC2)c2ccccc21 | > 4 mM (inactive)
CC(=O)NN1C(=O)c2cccc3cccc(c23)C1=O | > 4 mM (inactive)
CC1=[N+]([O-])C2(N)CCc3c(no[n+]3[O-])C2(O)C1 (configuration not stated) | > 4 mM (inactive)
